Tested on: hyperalgesia induced by chronic constriction of the sciatic nerve
Test: hyperalgesia induced by chronic constriction of the sciatic nerve (rat paw pressure test)
Format: in vivo
Conditions: for pain threshold, FM 24 h: day 14, 24 h after peptide; for pain threshold, FM 48 h: day 14, 48 h after peptide; for pain threshold, FM 72 h: day 14, 72 h after peptide; for pain threshold, FM 96 h: day 14, 96 h after peptide
Description: For the induction of neuropathic pain, surgery was performed in the sciatic nerve, in accordance with the method described by Bennett, G. J and Xie, Y. K. (Pain, 33:87-107, 1988). The animals were anesthetized with halothane. The sciatic nerve was exposed in the middle region of the thigh, moving away the femoral biceps muscle. Close to the trifurcation of the sciatic nerve, 7 mm of distance from the trifurcation, 4 loose ligations were performed (chromed catgut 4-0) around it, distant from each other in approximately 1 mm. The bindings were performed along the nerve, up to 4-5 mm from the initial point. The incision was sutured in layers, using silk suture thread number 4-0.
The test was applied before (BM-basal measurement) and on the 14th day after the surgery, to characterize the development of neuropathic pain.
The results were analyzed by comparing the means of the basal and initial measurements or by comparing the means of the initial and final measurements or, when determined, through the comparison of the means obtained in the different experimental groups.
For this purpose, the animals were treated with CTOP, a specific μ receptor antagonist (20 μg/paw), nor-BNI, a specific κ receptor antagonist (50 μg/paw) or with ICI 174,864, a specific δ receptor antagonist (10 μg/paw). The antagonists were injected, by intraplantar route. The peptide was administered in the dose of 5 μg/kg, orally, immediately before the injection of the opioid antagonists.
The results were analyzed comparing the mean values of the basal and initial measurements, or of the initial and final measurements or, when determined, by comparing the mean values obtained in the different experimental groups (Tables 15 and 16).

[1] = oral route, results 1 hour after treatment, reversal of hyperalgesia, CurveExpert 1.3

Xaa-Phe-Ser-Pro-Glu-Asn-Cys-Gln-Gly-Glu-Ser-Gln-Pro-Cys [SEQ ID NO: 2]
pain threshold, FM 1 h (0.0016 μg/kg p.o., day 14, 1 h after peptide): 32 ± 1.22 g | pain threshold, FM 3 h (0.0016 μg/kg p.o., day 14, 3 h after peptide): 32 ± 1.22 g | pain threshold, FM 24 h (0.0016 μg/kg p.o.): 33 ± 1.22 g | pain threshold, FM 48 h (0.0016 μg/kg p.o.): 30 ± 0.00 g | pain threshold, FM 72 h (0.0016 μg/kg p.o.): 32 ± 1.22 g | pain threshold, FM 96 h (0.0016 μg/kg p.o.): 32 ± 1.22 g | pain threshold, IM (0.0016 μg/kg p.o., day 14 after surgery, before peptide): 33 ± 1.22 g | pain threshold, BM (0.008 μg/kg p.o., before surgery): 74 ± 1.87 g | pain threshold, FM 1 h (0.008 μg/kg p.o., day 14, 1 h after peptide): 34 ± 1.00 g | pain threshold, FM 3 h (0.008 μg/kg p.o., day 14, 3 h after peptide): 30 ± 1.58 g | pain threshold, FM 24 h (0.008 μg/kg p.o.): 30 ± 0.00 g | pain threshold, FM 48 h (0.008 μg/kg p.o.): 33 ± 1.22 g | pain threshold, FM 72 h (0.008 μg/kg p.o.): 31 ± 1.00 g | pain threshold, FM 96 h (0.008 μg/kg p.o.): 32 ± 1.22 g | pain threshold, IM (0.008 μg/kg p.o., day 14 after surgery, before peptide): 33 ± 1.22 g | pain threshold, BM (0.04 μg/kg p.o., before surgery): 71 ± 1.00 g | pain threshold, FM 1 h (0.04 μg/kg p.o., day 14, 1 h after peptide): 29 ± 1.00 g | pain threshold, FM 3 h (0.04 μg/kg p.o., day 14, 3 h after peptide): 30 ± 0.00 g | pain threshold, FM 24 h (0.04 μg/kg p.o.): 31 ± 1.00 g | pain threshold, FM 48 h (0.04 μg/kg p.o.): 33 ± 1.22 g | pain threshold, FM 72 h (0.04 μg/kg p.o.): 33 ± 0.00 g | pain threshold, FM 96 h (0.04 μg/kg p.o.): 33 ± 1.22 g | pain threshold, IM (0.04 μg/kg p.o., day 14 after surgery, before peptide): 33 ± 1.22 g | pain threshold, BM (0.2 μg/kg p.o., before surgery): 73 ± 1.22 g | pain threshold, FM 1 h (0.2 μg/kg p.o., day 14, 1 h after peptide): 51 ± 1.87 g | pain threshold, FM 3 h (0.2 μg/kg p.o., day 14, 3 h after peptide): 56 ± 1.87 g | pain threshold, FM 24 h (0.2 μg/kg p.o.): 52 ± 1.22 g | pain threshold, FM 48 h (0.2 μg/kg p.o.): 54 ± 1.00 g | pain threshold, FM 72 h (0.2 μg/kg p.o.): 53 ± 1.22 g | pain threshold, FM 96 h (0.2 μg/kg p.o.): 33 ± 1.22 g | pain threshold, IM (0.2 μg/kg p.o., day 14 after surgery, before peptide): 31 ± 1.00 g | pain threshold, BM (1 μg/kg p.o., before surgery): 72 ± 1.22 g | pain threshold, FM 1 h (1 μg/kg p.o., day 14, 1 h after peptide): 73 ± 1.22 g | pain threshold, FM 3 h (1 μg/kg p.o., day 14, 3 h after peptide): 73 ± 1.22 g | pain threshold, FM 24 h (1 μg/kg p.o.): 71 ± 1.00 g | pain threshold, FM 48 h (1 μg/kg p.o.): 74 ± 1.00 g | pain threshold, FM 72 h (1 μg/kg p.o.): 71 ± 1.00 g | pain threshold, FM 96 h (1 μg/kg p.o.): 33 ± 1.22 g | pain threshold, IM (1 μg/kg p.o., day 14 after surgery, before peptide): 31 ± 1.00 g | pain threshold, FM 1 h (5 μg/kg p.o. + CTOP 20 μg/paw i.pl., 1 h after peptide): 105 ± 4.18 g | pain threshold, MF 3 h (5 μg/kg p.o. + CTOP 20 μg/paw i.pl., 3 h after peptide): 112 ± 5.83 g | pain threshold, BM (5 μg/kg p.o. + CTOP 20 μg/paw i.pl., before surgery): 72 ± 1.22 g | pain threshold, IM (5 μg/kg p.o. + CTOP 20 μg/paw i.pl., day 14, before peptide): 41 ± 1.88 g | pain threshold, FM 1 h (5 μg/kg p.o. + ICI 174,864 10 μg/paw i.pl., 1 h after peptide): 35 ± 1.87 g | pain threshold, MF 3 h (5 μg/kg p.o. + ICI 174,864 10 μg/paw i.pl., 3 h after peptide): 37 ± 2.55 g | pain threshold, BM (5 μg/kg p.o. + ICI 174,864 10 μg/paw i.pl., before surgery): 72 ± 1.22 g | pain threshold, IM (5 μg/kg p.o. + ICI 174,864 10 μg/paw i.pl., day 14, before peptide): 34 ± 1.87 g | pain threshold, FM 1 h (5 μg/kg p.o. + nor-BNI 50 μg/paw i.pl., 1 h after peptide): 69 ± 1.87 g | pain threshold, MF 3 h (5 μg/kg p.o. + nor-BNI 50 μg/paw i.pl., 3 h after peptide): 75 ± 1.58 g | pain threshold, BM (5 μg/kg p.o. + nor-BNI 50 μg/paw i.pl., before surgery): 73 ± 1.22 g | pain threshold, IM (5 μg/kg p.o. + nor-BNI 50 μg/paw i.pl., day 14, before peptide): 35 ± 1.58 g | pain threshold, BM (5 μg/kg p.o., before surgery (Table 11)): 72 ± 0.79 g | pain threshold, BM (5 μg/kg p.o., before surgery (Table 15)): 72 ± 1.44 g | pain threshold, FM 1 h (5 μg/kg p.o., day 14, 1 h after peptide (Table 11)): 100 ± 4.42 g | pain threshold, FM 1 h (5 μg/kg p.o., day 14, 1 h after peptide (Table 15)): 114 ± 6.57 g | pain threshold, FM 3 h (5 μg/kg p.o., day 14, 3 h after peptide (Table 11)): 98 ± 4.28 g | pain threshold, MF 3 h (5 μg/kg p.o., day 14, 3 h after peptide (Table 15)): 121 ± 5.91 g | pain threshold, FM 24 h (5 μg/kg p.o.): 99 ± 3.51 g | pain threshold, FM 48 h (5 μg/kg p.o.): 93 ± 3.00 g | pain threshold, FM 72 h (5 μg/kg p.o.): 86 ± 2.45 g | pain threshold, FM 96 h (5 μg/kg p.o.): 33 ± 1.18 g | pain threshold, IM (5 μg/kg p.o., day 14, before peptide (Table 15)): 35 ± 2.04 g | pain threshold, IM (5 μg/kg p.o., day 14 after surgery, before peptide (Table 11)): 32 ± 0.79 g | duration of the anti-hyperalgesic effect (one single administration p.o.): up to 3 days | 50% effective dose [1]: 0.2055 µg/kg | 60% effective dose [1]: 0.2832 µg/kg | 90% effective dose [1]: 0.5747 µg/kg | effect of the mu opioid receptor antagonist on the anti-hyperalgesic effect of the peptide (peptide 5 μg/kg p.o., CTOP 20 μg/paw i.pl.): did not alter | effect of the delta opioid receptor antagonist on the anti-hyperalgesic effect of the peptide (peptide 5 μg/kg p.o., ICI 174,864 10 μg/paw i.pl.): blocked | effect of the kappa opioid receptor antagonist on the anti-hyperalgesic effect of the peptide (peptide 5 μg/kg p.o., nor-BNI 50 μg/paw i.pl.): partially inhibited
